Laboratory results published in publication PMC10976173, “Synthesis of 5-Benzylamino and 5-Alkylamino-Substituted Pyrimido[4,5-c]quinoline Derivatives as CSNK2A Inhibitors with Antiviral Activity” (Pharmaceuticals, 2024).
In brackets after ≈: the same amount, converted by molar mass.

Key:
[1] = Kinetic solubility in PBS pH 7.4; format: physicochemical; conditions: phosphate-buffered saline, pH 7.4, aqueous buffer, kinetic from dmso stock, PBS pH 7.4, 24 h
Method: Kinetic solubility assay was conducted using 10 mM DMSO stocks of compounds in phosphate-buffered saline solution (PBS) at pH 7.4 by Analiza, Inc., Cleveland, OH, USA. […] The calculated values were corrected for the background nitrogen in the media and DMSO.

CSNK2A (CSNK2A2-NLuc) = target: T1, CSNK2A (CSNK2A2-NLuc) (Homo sapiens, UniProt P19784); test: In-cell CSNK2A target engagement by NanoBRET assay; format: cell-based; conditions: for IC50: In-cell target engagement by NanoBRET assay, HEK293 cells; for Designation: active / inactive analogs with 10-fold differences in IC50; for fold decrease in CSNK2A potency: compared to the parent compounds (4s and 4w); for fold increase in CSNK2A potency: compared to 4q
T1 construct: expressed in transfected cells; host or cells: HEK293
Method: A transfection complex of DNA at 10 µg/mL was created, consisting of 9 µg/mL of carrier DNA (Promega, Madison, WI, USA) and 1 µg/mL of CSNK2A2-NLuc fusion DNA in Opti-MEM without serum (Gibco). FuGENE HD (Promega) was added at 30 µL/mL to form a lipid/DNA complex. The solution was then mixed and incubated at room temperature for 20 min. […] The following day, the media was removed via aspiration and replaced with 85 μL of Opti-MEM without phenol red. A total of 5 μL per well of 20×-NanoBRET Tracer K10 (Promega) at 5 μM in Tracer Dilution Buffer (Promega N291B) was added to all wells, except the “no tracer” control wells. Test compounds (10 mM in DMSO) were diluted 100× in Opti-MEM media to prepare stock solutions and evaluated at eleven concentrations. A total of 10 μL per well of the 10-fold test compound stock solutions (final assay concentration of 0.1% DMSO) was added. […] 96-well plates containing cells with NanoBRET Tracer K10 and test compounds (100 µL total volume per well) were equilibrated (37 °C/5% CO2) for 2 h. The plates were cooled to room temperature for 15 min. […] A total of 50 μL of the 3× substrate/extracellular NL inhibitor were added to each well. The plates were read within 30 min on a GloMax Discover luminometer (Promega) equipped with 450 nm BP filter (donor) and 600 nm LP filter (acceptor) using 0.3 s integration time. Raw milliBRET (mBRET) values were obtained by dividing the acceptor emission values (600 nm) by the donor emission values (450 nm) and multiplying by 1000. […] The data were first normalized and then fit using Sigmoidal, 4PL binding curve in GraphPad Prism version 9.5.1 to determine IC50 values (Figure S1).

[2] = tested on: Mouse Hepatitis Virus (MHV); test: microbe, parasite or virus in culture; format: cell-based; conditions: Murine coronavirus; Inhibition of MHV-NLuc in DBT cells; read-out: MHV IC50

T1 sequence (P19784 whole entry): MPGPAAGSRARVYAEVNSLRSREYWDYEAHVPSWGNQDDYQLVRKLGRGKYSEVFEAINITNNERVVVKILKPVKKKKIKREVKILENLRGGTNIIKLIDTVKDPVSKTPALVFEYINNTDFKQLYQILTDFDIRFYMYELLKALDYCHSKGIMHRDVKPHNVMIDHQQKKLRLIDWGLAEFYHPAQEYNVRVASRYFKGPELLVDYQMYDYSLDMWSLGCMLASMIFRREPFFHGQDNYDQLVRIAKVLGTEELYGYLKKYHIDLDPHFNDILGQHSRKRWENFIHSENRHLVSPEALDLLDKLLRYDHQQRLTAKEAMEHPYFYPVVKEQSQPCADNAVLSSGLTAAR

solubility at 24 h [1] [µM]	melting point [°C]	IC50 (CSNK2A (CSNK2A2-NLuc)) [nM]	Designation (CSNK2A (CSNK2A2-NLuc))	fold decrease in CSNK2A potency (CSNK2A (CSNK2A2-NLuc)) [fold]	fold increase in CSNK2A potency (CSNK2A (CSNK2A2-NLuc)) [fold]	fold less active on CSNK2A (CSNK2A (CSNK2A2-NLuc); compared to unmethylated parent amine 4t) [fold]	SMILES	IC50 [2] [nM]
150 (≈ 54.7 µg/mL)	240 to 243	370					O=C(O)c1ccc2c(c1)nc(NCc1cccc(Cl)c1)c1ncncc12 [Compound 4b, 5-((3-chlorobenzyl)amino)pyrimido[4,5-c]quinoline-8-carboxylic acid]	
170 (≈ 50.4 µg/mL)	270 to 273	1200					CC(C)CNc1nc2cc(C(=O)O)ccc2c2cncnc12 [Compound 4q, 5-(isobutylamino)pyrimido[4,5-c]quinoline-8-carboxylic acid]	
160 (≈ 57 µg/mL)	204 to 208	1200	Inactive				O=C(O)c1ccc2c(c1)nc(N1CCc3ccccc3C1)c1ncncc12 [Compound 4ai, 5-(3,4-dihydroisoquinolin-2(1H)-yl)pyrimido[4,5-c]quinoline-8-carboxylic acid]	
220 (≈ 77.1 µg/mL)	280 to 284	1400		10			O=C(O)c1ccc2c(c1)nc(NCC13CCC(CC1)O3)c1ncncc12 [Compound 4z, 5-(((7-oxabicyclo[2.2.1]heptan-1-yl)methyl)amino)pyrimido[4,5-c]quinoline-8-carboxylic acid]	
220 (≈ 67.8 µg/mL)	265 to 268	410			3		O=C(O)c1ccc2c(c1)nc(NCC1CCC1)c1ncncc12 [Compound 4r, 5-((cyclobutylmethyl)amino)pyrimido[4,5-c]quinoline-8-carboxylic acid]	
200 (≈ 70.1 µg/mL)	229 to 231	2400	Inactive			17	CN(CC1CCCCC1)c1nc2cc(C(=O)O)ccc2c2cncnc12 [Compound 4ad, 5-((cyclohexylmethyl)(methyl)amino)pyrimido[4,5-c]quinoline-8-carboxylic acid]	
140 (≈ 45.4 µg/mL)	160 to 164	3100		10			O=C(O)c1ccc2c(c1)nc(NCC1CCOC1)c1ncncc12 (centres unmarked) [Compound 4y, 5-(((tetrahydrofuran-3-yl)methyl)amino)pyrimido[4,5-c]quinoline-8-carboxylic acid]	
	260 to 262	> 10000					O=C(O)c1ccc2c(c1)nc(N[C@@H]1CCc3ccccc31)c1ncncc12 [Compound 4ah, (R)-5-((2,3-dihydro-1H-inden-1-yl)amino)pyrimido[4,5-c]quinoline-8-carboxylic acid]	
140 (≈ 46.4 µg/mL)	250 to 254	8000					O=C(O)c1ccc2c(c1)nc(NCc1ccccn1)c1ncncc12 [Compound 4n, 5-((pyridin-2-ylmethyl)amino)pyrimido[4,5-c]quinoline-8-carboxylic acid]	
160 (≈ 57.7 µg/mL)	246 to 247	280					COc1ccc(CNc2nc3cc(C(=O)O)ccc3c3cncnc23)cc1 [Compound 4f, 5-((4-methoxybenzyl)amino)pyrimido[4,5-c]quinoline-8-carboxylic acid]	
140 (≈ 51.1 µg/mL)	193 to 198	290					O=C(O)c1ccc2c(c1)nc(NCc1ccccc1Cl)c1ncncc12 [Compound 4a, 5-((2-chlorobenzyl)amino)pyrimido[4,5-c]quinoline-8-carboxylic acid]	
170 (≈ 58.5 µg/mL)	201 to 204	340					Cc1ccc(CNc2nc3cc(C(=O)O)ccc3c3cncnc23)cc1 [Compound 4h, 5-((4-methylbenzyl)amino)pyrimido[4,5-c]quinoline-8-carboxylic acid]	
200 (≈ 66.3 µg/mL)	270 to 274	6000					O=C(O)c1ccc2c(c1)nc(NCc1cccnc1)c1ncncc12 [Compound 4o, 5-((pyridin-3-ylmethyl)amino)pyrimido[4,5-c]quinoline-8-carboxylic acid]	
190 (≈ 59 µg/mL)	282 to 285	870					CC(C)(C)CNc1nc2cc(C(=O)O)ccc2c2cncnc12 [Compound 4v, 5-(neopentylamino)pyrimido[4,5-c]quinoline-8-carboxylic acid]	
140 (≈ 50.5 µg/mL)	230 to 233	1000					COc1ccccc1CNc1nc2cc(C(=O)O)ccc2c2cncnc12 [Compound 4d, 5-((2-methoxybenzyl)amino)pyrimido[4,5-c]quinoline-8-carboxylic acid]	
220 (≈ 77.3 µg/mL)	205 to 208	48700					CN1CCC(CNc2nc3cc(C(=O)O)ccc3c3cncnc23)CC1 [Compound 4ab, 5-(((1-methylpiperidin-4-yl)methyl)amino)pyrimido[4,5-c]quinoline-8-carboxylic acid]	
160 (≈ 63.7 µg/mL)	245 to 248	640					O=C(O)c1ccc2c(c1)nc(NCc1ccc(C(F)(F)F)cc1)c1ncncc12 [Compound 4j, 5-((4-(trifluoromethyl)benzyl)amino)pyrimido[4,5-c]quinoline-8-carboxylic acid]	
< 1	246 to 248	1900					O=C(O)c1ccc2c(c1)nc(NCc1ccc(-c3ccc(Cl)cc3)cc1)c1ncncc12 [Compound 4l, 5-(((4′-chloro-[1,1′-biphenyl]-4-yl)methyl)amino)pyrimido[4,5-c]quinoline-8-carboxylic acid]	
170 (≈ 61.3 µg/mL)	210 to 214	600					COc1cccc(CNc2nc3cc(C(=O)O)ccc3c3cncnc23)c1 [Compound 4e, 5-((3-methoxybenzyl)amino)pyrimido[4,5-c]quinoline-8-carboxylic acid]	
5 (≈ 1.9 µg/mL)	250 to 253	500					O=C(O)c1ccc2c(c1)nc(NCc1ccc3ccccc3c1)c1ncncc12 [Compound 4m, 5-((naphthalen-2-ylmethyl)amino)pyrimido[4,5-c]quinoline-8-carboxylic acid]	
210 (≈ 67.7 µg/mL)	261 to 264	320			3		O=C(O)c1ccc2c(c1)nc(NCC1CCCC1)c1ncncc12 [Compound 4s, 5-((cyclopentylmethyl)amino)pyrimido[4,5-c]quinoline-8-carboxylic acid]	
	252 to 255	300					O=C(O)c1ccc2c(c1)nc(N[C@H]1CCc3ccccc31)c1ncncc12 [Compound 4ag, (S)-5-((2,3-dihydro-1H-inden-1-yl)amino)pyrimido[4,5-c]quinoline-8-carboxylic acid]	
150 (≈ 57.1 µg/mL)	250 to 255	470					O=C(O)c1ccc2c(c1)nc(NCc1ccc(C(F)F)cc1)c1ncncc12 [Compound 4i, 5-((4-(difluoromethyl)benzyl)amino)pyrimido[4,5-c]quinoline-8-carboxylic acid]	
180 (≈ 62 µg/mL)	200 to 204	250	Active				CN(Cc1ccccc1)c1nc2cc(C(=O)O)ccc2c2cncnc12 [Compound 4ac, 5-(benzyl(methyl)amino)pyrimido[4,5-c]quinoline-8-carboxylic acid]	
200 (≈ 66.3 µg/mL)	274 to 276	14000					O=C(O)c1ccc2c(c1)nc(NCc1ccncc1)c1ncncc12 [Compound 4p, 5-((pyridin-4-ylmethyl)amino)pyrimido[4,5-c]quinoline-8-carboxylic acid]	
160 (≈ 56.9 µg/mL)	270 to 275	530					N#Cc1ccc(CNc2nc3cc(C(=O)O)ccc3c3cncnc23)cc1 [Compound 4k, 5-((4-cyanobenzyl)amino)pyrimido[4,5-c]quinoline-8-carboxylic acid]	
180 (≈ 62 µg/mL)	228 to 232	1900	Inactive				CC(Nc1nc2cc(C(=O)O)ccc2c2cncnc12)c1ccccc1 (centres unmarked) [Compound 4ae, 5-((1-phenylethyl)amino)pyrimido[4,5-c]quinoline-8-carboxylic acid]	

SMILES	solubility at 24 h [1] [µM]	melting point [°C]	IC50 (CSNK2A (CSNK2A2-NLuc)) [nM]	Designation (CSNK2A (CSNK2A2-NLuc))	fold decrease in CSNK2A potency (CSNK2A (CSNK2A2-NLuc)) [fold]	fold increase in CSNK2A potency (CSNK2A (CSNK2A2-NLuc)) [fold]	fold less active on CSNK2A (CSNK2A (CSNK2A2-NLuc); compared to unmethylated parent amine 4t) [fold]	IC50 [2] [nM]
O=C(O)c1ccc2c(c1)nc(NCC13CCC(CC1)C3)c1ncncc12 [Compound 4w, 5-((bicyclo[2.2.1]heptan-1-ylmethyl)amino)pyrimido[4,5-c]quinoline-8-carboxylic acid]	190 (≈ 66.2 µg/mL)	291 to 292	170					17000
O=C(O)c1ccc2c(c1)nc(NCc1ccc(Cl)cc1)c1ncncc12 [Compound 4c, 5-((4-chlorobenzyl)amino)pyrimido[4,5-c]quinoline-8-carboxylic acid]	160 (≈ 58.4 µg/mL)	203 to 205	130					13000
O=C(O)c1ccc2c(c1)nc(NCc1ccc(F)cc1)c1ncncc12 [Compound 4g, 5-((4-fluorobenzyl)amino)pyrimido[4,5-c]quinoline-8-carboxylic acid]	180 (≈ 62.7 µg/mL)	235 to 238	150					10000
O=C(O)c1ccc2c(c1)nc(NCC1CCC(F)(F)CC1)c1ncncc12 [Compound 4aa, 5-(((4,4-difluorocyclohexyl)methyl)amino)pyrimido[4,5-c]quinoline-8-carboxylic acid]	180 (≈ 67 µg/mL)	288 to 291	190					10000
